{"source": "a melting point compilation (Tetko et al.; mined from patent text by program, amines drawn as free bases though some values may be those of a salt)", "data": [{"units": {"melting point": "°C"}, "values": [{"compound": "COc1ccc(-c2ccc3c(c2)c2cc(Cl)cnc2n3S(=O)(=O)c2ccccc2)cc1", "melting point": "> 220"}, {"compound": "CCOc1cc(-c2cc(C(F)F)n3ncc(-c4nc(-c5ccc(N)nc5)no4)c3n2)ccc1C(F)(F)F", "melting point": 250}, {"compound": "Clc1ccc2c(c1)Oc1ccccc1C=C2CBr", "melting point": "117 to 119"}, {"compound": "CSc1nccc(C(C)=NO)n1", "melting point": "150 to 152"}, {"compound": "O=C1c2ccccc2C(=O)N1OCCCN1CCOCC1", "melting point": 98}, {"compound": "NS(=O)(=O)c1ccc2c(c1)S(=O)(=O)NC(C1CCCCC1)N2", "note": "(stereo not given)", "melting point": "252 to 254"}, {"compound": "CSCCSc1c(O)cc(C)oc1=O", "melting point": "81 to 83"}, {"compound": "CCc1[nH]n(C2CCCC2)c2nc(-c3cccc(OCC(=O)N4CCOCC4)c3)nc(=O)c1-2", "melting point": "212 to 213"}, {"compound": "CC(C)c1cc(C(C)C)c(CC(=O)NS(=O)(=O)Oc2c(C(C)C)cc(N(CCO)CCO)cc2C(C)C)c(C(C)C)c1", "melting point": "143 to 146"}, {"compound": "COC(=O)NC(=NS(=O)(=O)NC1CCCCC1)OC", "melting point": "84 to 86"}, {"compound": "C[C@H]1CCCC(C)(C)[C@@H]1[C@H](O)c1ccc(C(F)(F)F)cc1", "melting point": "63 to 66"}, {"compound": "CCOC(=O)C1=C(NC(=O)Nc2ccc(Cl)c(C(=O)OCC)c2)CCCC1", "melting point": "119 to 122"}, {"compound": "O=C1NCc2c(Oc3ccccc3)cccc2N1c1ccccc1", "melting point": "225 to 227"}, {"compound": "Fc1ccc(Nc2nc(Cl)nc(Cl)n2)cc1C(F)(F)F", "melting point": "114 to 117"}, {"compound": "COC(=O)Oc1c(OC)cc(OC)c2ccccc12", "melting point": "128 to 129"}, {"compound": "CCOc1cc(OCCCc2cn(-c3ccc(C(F)(F)F)cc3)nc2OCC)ccc1CCC(=O)O", "melting point": "131 to 132"}, {"compound": "CN1CCN(c2ccccc2C=C2CCN(c3ccc(C(F)(F)F)cc3)C2=O)CC1", "melting point": "186 to 189"}, {"compound": "CC1C(=O)N(CCO)C(=S)N1c1ccc(Oc2ccccc2)cc1", "note": "(stereo not given)", "melting point": 120}, {"compound": "NC(=O)c1nccn1C1Cc2c(Cl)cccc2C1=O", "note": "(stereo not given)", "melting point": 90}, {"compound": "CC(=O)OC1=CC(NC(=O)CCc2ccc(Cl)cc2Cl)C(=O)N(C)c2ccccc21", "note": "(stereo not given)", "melting point": "142 to 144"}, {"compound": "COc1ccc(Cl)c(N)c1C(=O)CCl", "melting point": 112}, {"compound": "CC(C)COC(=O)Nc1nc(N2CC=CCC2)nc2nc(=O)on12", "melting point": "210 to 215"}, {"compound": "C[Si](C)(C)CCOCn1cc(C#N)c(=O)c2cc([N+](=O)[O-])c(Cl)cc21", "melting point": "200 to 202"}, {"compound": "Oc1ccccc1CNCc1cccc(CNCc2ccccc2O)c1", "melting point": "61 to 63"}, {"compound": "CCOC(=O)C(c1ccccc1)n1cccc1", "note": "(stereo not given)", "melting point": "51 to 53"}, {"compound": "COC1CCN(S(=O)(=O)c2ccc(S(N)(=O)=O)cc2C(F)(F)F)CC1", "melting point": "136 to 137"}, {"compound": "CSC1=C(c2cccc3sccc23)N2CCN=C2S1", "melting point": "104 to 107"}, {"compound": "O=C1NC(=O)C(S(=O)(=O)c2ccc(Br)cc2)S1", "note": "(stereo not given)", "melting point": "156 to 158"}, {"compound": "OC1CSC(Oc2cccc(-c3cccnc3)n2)C(O)C1O", "note": "(stereo not given)", "melting point": 179}, {"compound": "CCc1ccc2c(c1)C(=O)N(CCCCN1CCC(n3c(=O)oc4ccccc43)CC1)S2(=O)=O", "melting point": "165 to 168"}, {"compound": "Cc1oc(-c2ccccc2)nc1COc1ccc(Cn2cc(CCC(=O)O)c(-c3ccccc3)n2)cc1", "melting point": "179 to 180"}, {"compound": "CC(=O)c1ccc2c(c1)CCc1ccc(C#N)cc1S2", "melting point": "138 to 141"}, {"compound": "O=C(O)CC(CC(=O)O)c1cc(C(=O)O)n(CC(=O)O)c1", "melting point": 130}, {"compound": "CC(=O)Oc1c(C)cc2c(c1C)C(C)CN2C(=O)C(C)C", "note": "(stereo not given)", "melting point": "118 to 120"}, {"compound": "[N-]=[N+]=CC(=O)C(Cc1ccc(F)cc1)NC(=O)OCc1ccccc1", "note": "(racemic)", "melting point": 97}, {"compound": "COc1c(NC2CCC3(CC2)OCC(C)(C)CO3)ccnc1C", "melting point": 45}, {"compound": "O=C(/C=C/c1ccc(S(=O)(=O)N2CCN(c3ccccc3F)CC2)cc1)NO", "melting point": "196 to 197"}, {"compound": "CCOC(=O)c1c(CN(CC)CC)nc2sc3c(c2c1-c1ccc(Cl)cc1)CCNC3", "melting point": "104 to 106"}, {"compound": "CC(C)Cn1cc(C(=O)Nc2nccs2)c2ccc(Cl)cc21", "melting point": "200 to 202"}, {"compound": "COc1ccc(CC(=O)O)cc1OC1CCCC1", "melting point": "79 to 80"}]}]}
